Here are results for three compounds from patent publication US4748180A, “β-carboline-3-carboxylic acid derivatives, and their use as psychotropic and anti-epileptic agents” (Schering Aktiengesellschaft, priority 1984, dated 1988).

The test system of experiment [1] is benzodiazepine receptors. The experiment is described as follows: in vivo inhibition of 3H-flunitrazepam binding (forebrain membranes of injected mice). The following applies: usually subcutaneously, 3H-flunitrazepam i.v. 15 minutes later, killed after a further 20 minutes. The method, then: The ED50 value represents the dose (mg/kg) of a test substance which causes the specific binding of flunitrazepam to benzodiazepine receptors in a living brain to be reduced to 50% of the control value. Such an in vivo test is carried out as follows:
Groups of mice are injected with the test substance of different doses and usually subcutaneously. 15 minutes later ^3 H-flunitrazepam is administered intravenously to the mice, and after a further 20 minutes, the mice are killed. Their forebrain membranes are removed and the radioactivity of these forebrain membranes is measured by scintillation counting. The ED50 value is determined from dose-response curves.

The target of experiment [2] is benzodiazepine receptors. The experiment is described as follows: in vitro inhibition of 3H-flunitrazepam binding (displacement test, brain membrane suspension). Further details: unit not given here. The settings on record: 3H-flunitrazepam 1.0 nM, 0° C., rat forebrain, pH 7.1.

Consider `CCOCc1cccc2[nH]c3cnc(C(=O)OCC)c(COC)c3c12` [Example 1, 5-ethoxymethyl-4-methoxymethyl-β-carboline-3-carboxylic acid ethylester], for which the “Inhibition of H^3flunitrazepam binding in vivo ED50” value (from here on “Inhibition … in vivo ED50”) in the experiment on benzodiazepine receptors [1] is on record as 2.4 mg/kg. Also, the “Inhibition of H^3flunitrazepam binding in vitro IC50” value (from here on “Inhibition … in vitro IC50”) on benzodiazepine receptors [2] amounted to 0.4.

As for `CCOC(=O)c1ncc2[nH]c3cccc(OC4CCC4)c3c2c1COC`, in the experiment with benzodiazepine receptors [1], the “Inhibition … in vivo ED50” value was 0.5 mg/kg. On benzodiazepine receptors [2], the “Inhibition … in vitro IC50” value is recorded as 0.2.

In the case of `CCOC(=O)c1ncc2[nH]c3cccc(OC(C)C)c3c2c1COC`, the “Inhibition … in vivo ED50” value in the experiment on benzodiazepine receptors [1] stood at 1.4 mg/kg. At benzodiazepine receptors [2], the “Inhibition … in vitro IC50” value was 0.6.
